Experimental data as given in EP2286808A1, “Cytohesin inhibitors” (Rheinische Friedrich-Wilhelms Universität, priority 2009, dated 2011).

Tests used:
[1] = target: T1, sec7-domains of cytohesin-2 (ARNO) (Homo sapiens, UniProt Q99418); assay: guanine nucleotide exchange assay (GDP/GTP exchange on [Δ17]ARF1, tryptophan fluorescence); type: biochemical; conditions: for inhibition of the sec7-domain of the isolated cytohesin-2 (relative exchange rate): 5µM amide compared with 5µM control SecinH3 (K), whose rate is set to 1, Fig. 1; for IC50: 250 nM [Δ17]ARF1, 10 nM ARNO-Sec7, 50 µM GTP, PBS pH 7.4, 37°C, read-out: IC50 value measured for the isolated Sec-7 domain of cytohesin-2; for dual activity in cell adhesion and nucleotide exchange assays (summary in words): across nucleotide exchange and cell adhesion assays
T1 construct: ARNO-Sec7 (amino acids 50-255 of ARNO) were expressed in Escherichia coli; inferred from pET15 vector and Ni-NTA purification; made in house; host or cells: Escherichia coli
T1 sequence (Q99418 50-255): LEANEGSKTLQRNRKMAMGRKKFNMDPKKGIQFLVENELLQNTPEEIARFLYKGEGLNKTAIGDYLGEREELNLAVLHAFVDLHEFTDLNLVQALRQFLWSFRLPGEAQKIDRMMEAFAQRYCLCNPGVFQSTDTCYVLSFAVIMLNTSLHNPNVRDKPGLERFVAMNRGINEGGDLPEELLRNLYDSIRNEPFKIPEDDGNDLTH
Description: The inhibition of the exchange activity of the sec7-domains of cytohesin-2 (ARNO) of the amides according to formulas (5) to (30) was determined by a guanine nucleotide exchange assay.
For this purpose, the sec7-domains of cytohesin-2 (ARNO-Sec7) and [Δ17]ARF1, a mutant of the ADP-ribosylation factor (ARF) protein, were subcloned into pET15 vectors (Novagen) as described in Hafner, M. et al. Nature 444, 941-944 (2006). N-terminal truncated [Δ17]ARF1 (amino acids 18-181), lacking the first 17 amino acids and ARNO-Sec7 (amino acids 50-255 of ARNO) were expressed in Escherichia coli and purified by Ni-NTA chromatography (Ni-NTA agarose, Qiagen).
The exchange from […] (GDP) to guanidine-triphosphate (GTP) induces a conformation change of the ribosylation factor, as a result of which the fluorescence of a tryptophan radical of the protein is increased. GDP/GTP exchange was measured on [Δ17][…] by tryptophan fluorescence because a large increase in intrinsic fluorescence of ARF occurs upon exchange of GDP for GTP. All measurements were performed in PBS (137 mM NaCl, 2.7 mM KCl, 10.2 mM Na2HPO4, 1.8 mM KH2PO4) pH 7.4, 3 mM MgCl2 at 37°C.
[Δ17]ARF1 (1 µM) in PBS without MgCl2 was preincubated with 80 µM GDP in the presence of 2 mM ethylenediaminetetraacetic acid (EDTA) for 15 minutes. The bound GDP was stabilized by addition of MgCl2 at a final concentration of 3 mM and incubation for 5 minutes. For each exchange reaction 250 nM [Δ17]ARF1 was mixed with 10 nM ARNO-Sec7 (total volume 200 µl) in the absence or presence of inhibitoring amides according to formulas (5) to (30). The reaction was started by injection of 50 µM GTP.
The tryptophan fluorescence was measured at excitation and emission wavelength of 280 nm and 340 nm respectively. All fluorescent measurements were performed with a Varioskan microplate reader (Thermo Scientific), in 96-well plates. For analysis all data were fitted by linear regression.
The pan-active cytohesin inhibitor "SecinH3", a 1-, 2-, 4-substituted triazole according to formula (9) as disclosed in DE 10 2004 055 998 served as the control (K). The relative exchange rate of the control SecinH3 (K) was set to be 1.
The relative exchange rate was determined by comparing the initial linear rise of the fluorescence signal (exchange rate) in the presence of 5µM of the amides according to formulas (5) to (30) with the exchange rate in the presence of 5µM control SecinH3 (K), whereas the latter was set to be 1.
Further, the IC50 value inhibition of the sec7-domain of the isolated cytohesin-2 was determined. The IC50 value was be determined by plotting the initial linear rise of the fluorescence signal against the added concentrations of the amide. The IC50 value corresponds to the concentration of the amide at which the activity of the protein is reduced to half.

[2] = system: Drosophila insulin signaling (d4E-BP mRNA levels in Drosophila S2 cells); assay: Drosophila insulin signaling assay, d4E-BP mRNA by quantitative RT-PCR; type: cell-based; conditions: 5 µg/ml insulin; for d4E-BP transcript levels: 10 µM amide for 18 hours, control SecinH3 (K) set to 1, Fig. 2
Description: In order to evaluate potential interference of the amides according to formulas (5) to (30) with Drosophila insulin signaling, S2 (Schneider 2 insect cell line, Invitrogen) cells were grown under starvation conditions and subsequently treated with insulin. This triggers a strong activation of the insulin signaling cascade resulting in the nuclear exclusion of the forkhead-box transcription factor dFOXO, which in turn down-regulates the expression of the transcriptional repressor d4E-BP (eIF4E-binding protein). […] This was measured by quantitative RT-PCR and compared to the effect of the control SecinH3 (K) in the same assay.
0.5 x 10^6 S2 cells were grown in 24-well dishes in medium (Schneiders Drosophila Medium, PAN Biotech) without FCS (heat-inactivated fetal calf serum) representing starvation condition. Six hours after seeding cells were treated for 18 hours with 10 µM of the respective amide according to formulas (5) to (30) or 10 µM SecinH3 (K) as reference. 22 hours after seeding cells were treated with 5 µg/ml insulin (Sigma). Controls were performed without amide and/or without insulin treatment. The amides were dissolved in dimethyl sulfoxide (DMSO). Final DMSO concentration in the cell culture medium was 0.5 %.
NucleoSpin 8 RNA Kit (Macherey-Nagel) was used for RNA preparation according to manufacturer's instructions. Genomic DNA digestion and first strand cDNA synthesis was carried out with 250 ng total RNA using QuantiTect Reverse Transkription Kit (Qiagen). Quantitative PCR was performed with the iQ5 Real-Time PCR detection system (Bio-Rad) and iQ SYBR Green Super Mix (Bio-Rad). Three reactions were done in parallel for each template. Real Time PCR was analysed using Bio-Rad iQ5 Optical System Software and Microsoft Excel.
The d4E-BP mRNA level after treatment of cells with the amides according to formulas (5) to (30) compared to the control SecinH3 is shown in Fig. 2. The d4E-BP mRNA level after treatment of cells with the control SecinH3 (K) was set to be 1.

[3] = system: adhesion of the T cell line Jurkat E6 to an immobilized ICAM-1-Fc-fusion protein; assay: cell adhesion assay, Jurkat E6 cells to immobilized ICAM-1-Fc-fusion protein; type: cell-based, human; conditions: 25 µM amide, OKT3 or PMA stimulation; 100% adhesion = 25 µM control SecinH3 (K); Fig. 3
Description: The ability of the amides according to formulas (5) to (30) to inhibit adhesion of the T cell line Jurkat E6 to an immobilized ICAM-1(Inter-Cellular Adhesion Molecule 1)-Fc-fusion protein was tested. On the T cell side, this interaction is exclusively mediated by the β-2 integrin LFA-1 that was enabled to bind to immobilized ICAM-1 through stimulation of Jurkat cells with an anti-TCR (T cell receptor) antibody or with the phorbol ester PMA (Phorbol 12-myristate 13-acetate). Cell adhesion to ICAM-Fc was carried out on 96-well dishes and was read out by fluorescence detection of total input versus bound cells which had been labeled with the DNA dye H33342.
Jurkat E6.1 cells were incubated in HBSS (Hank's BSS, PAA), 0.5% DMSO and, where indicated, 25 µM of the respective amide for one hour at 37°C, 5% CO2. After 30 minutes the cells were labeled with the fluorochrome bisbenzimide trihydrochloride H33342 (Sigma-Aldrich) at […] for 30 minutes at 37°C. 2 x 10^5 cells/ well were subsequently dispensed into a 96-well plate at 100µl/well. Prior to use plates were coated with 12µg/ml goat anti-human IgG for 90 minutes at 21°C, blocked with 1% BSA (Bovine serum albumin) in PBS overnight and incubated for 60 minutes with culture supernatants from CV-1 cells expressing an ICAM-1-Fc fusion protein.
Cells were either stimulated with 5 µg/ml purified anti CD3 antibody (OKT3, hybridome of ATCC, mAb OKT3 purified on protein A, according to standard methods from Current Protocols in Immunology, 5th Ed., Coligan et al., Edts, Wiley 2004) or with 50 ng/ml PMA, respectively. Cells were allowed to adhere to the ICAM-1-Fc coated dishes for 15 minutes and unbound cells were washed off with Hank's BSS (PAA). Adherent cells were read out using a fluorescence plate reader (Synergy-HT1, Biotek) at 485 nm in triplicates.
"100% adhesion" corresponds to the mean of OKT3 and PMA stimulated samples treated with 25 µM control control Secin H3 (K) as reference.

Row | dual activity in cell adhesion and nucleotide exchange assays (summary in words) [1] | Compound | inhibition of the sec7-domain of the isolated cytohesin-2 (relative exchange rate) [1] | dose-response behaviour of inhibition in nucleotide exchange assay [1] | potency in nucleotide exchange assay (summary in words) [1] | IC50 [1] [µM] | d4E-BP transcript levels [2] | inhibition of the adhesion of the Jurkat E6.1 cells to ICAM-1 [3] | increase in dFOXO-dependent d4E-BP transcript levels compared to the reference (K) ([2]; 10 µM amide) [fold]
1 | – | COc1nc(-c2ccc(C)cc2)n(-c2ccc(NC(=O)/C=C/c3ccccc3)cc2)n1 [formula (7)] | better than that of the control SecinH3 (K) | – | – | – | – | – | –
2 | – | COc1nc(-c2ccc3c(c2)OCO3)n(-c2ccc(NC(=O)CSc3ccccc3)cc2)n1 [SecinH3, reference compound] | – | – | – | 11.4 | – | – | –
3 | dual activity | CC(C)(C)c1ccc(C(=O)Nc2ccc(NC(=O)c3ccc4c(c3)OCO4)cc2)cc1 [formula (29)] | – | – | – | – | – | better than that of the control (K) | –
4 | – | CC(C)(C)c1ccc(C(=O)Nc2ccc(NC(=S)NC(=O)c3cccs3)cc2)cc1 [formula (6)] | better than that of the control SecinH3 (K) | – | potent inhibitors | 8 | increased | better than that of the control (K) | –
5 | – | CC(C)(C)c1ccc(C(=O)Nc2ccc(NC(=O)/C=C/c3ccco3)cc2)cc1 [formula (5)] | better than that of the control SecinH3 (K) | displayed a dose-response behaviour | potent inhibitors | 3.1 | increased | better than that of the control (K) | ~20
6 | dual activity | COc1ccc(-n2c(SCCC(=O)NC(N)=O)nnc2-c2ccc(C(C)(C)C)cc2)cc1Cl [formula (11)] | better than that of the control SecinH3 (K) | – | – | – | – | better than that of the control (K) | –

Row | Compound | dual activity in cell adhesion and nucleotide exchange assays (summary in words) [1] | inhibition of the sec7-domain of the isolated cytohesin-2 (relative exchange rate) [1] | dose-response behaviour of inhibition in nucleotide exchange assay [1] | potency in nucleotide exchange assay (summary in words) [1] | IC50 [1] [µM] | d4E-BP transcript levels [2] | inhibition of the adhesion of the Jurkat E6.1 cells to ICAM-1 [3] | increase in dFOXO-dependent d4E-BP transcript levels compared to the reference (K) ([2]; 10 µM amide) [fold]
7 | C=CCn1c(SCC(=O)Nc2nsc(-c3ccccc3)n2)nc2scc(-c3ccccc3)c2c1=O [formula (20)] | dual activity | – | displayed a dose-response behaviour | potent inhibitors | 2.1 | increased | – | –
